{"source": "paper PMC5534107", "about": "“Sensitization of ASIC3 by proteinase-activated receptor 2 signaling contributes to acidosis-induced nociception” (Journal of Neuroinflammation, 2017)", "key": {"[1]": {"system": "ASIC3 currents in CHO cells co-expressing ASIC3 and PAR2", "test": "Whole-cell patch clamp of proton-gated currents (I pH 6.6) in CHO cells co-expressing ASIC3 and PAR2", "assay_type": "cell-based, Chinese hamster", "method": "(§1) ASIC3, ASIC1a, ASIC1b, ASIC2b, and PAR2 complementary DNAs (cDNAs) were used for heterologous expression in CHO cells as described previously (Wang et al., 2013). In brief, CHO cells were cultured at 37 °C in a humidified atmosphere of 5% CO2 and […] and passaged twice a week. Transient transfection of CHO cells was performed using HilyMax liposome transfection reagent (Dojindo Laboratories). CHO cells were maintained in F-12 Nutrient Mixture (added 1.176 g of NaHCO3/L medium) supplemented with 10% fetal bovine serum and 1% gluta-MAXTM-1 (100×; Invitrogen). When ASIC3 and PAR2 cDNAs were co-transfected, the ratio was kept at 1:1. All plasmids used contained, in addition to the desired ASIC3 cDNA, the coding sequence for enhanced green fluorescent protein to aid identification of transfected cells. Electrophysiological measurements were performed 24–48 h after transfection.\nWhole-cell patch clamp and voltage clamp recordings were carried out at room temperature (22–25 °C) using a MultiClamp-700B amplifier and Digidata-1440A A/D converter (Axon Instruments, CA, USA). Recording pipettes were pulled using a Sutter P-97 puller (Sutter Instruments, CA, USA). The micropipettes were filled with internal solution containing (mM) KCl 140, MgCl2 2.5, HEPES 10, EGTA 11, and ATP 5; its pH was adjusted to 7.2 with KOH, and osmolarity was adjusted to 310 mOsm/L with sucrose. Cells were bathed in an external solution containing (mM) NaCl 150, KCl 5, CaCl2 2.5, MgCl2 2, HEPES 10, D-glucose 10; its osmolarity was adjusted to 330 mOsm/L with sucrose and its pH to 7.4. The resistance of the recording pipette was in the range of 3–6 MΩ. A small patch of membrane underneath the tip of the pipette was aspirated to form a giga seal, and then, a negative pressure was applied to rupture it, thus establishing a whole-cell configuration. The series resistance was compensated for by 70–80%. The adjustment of capacitance compensation was also done before recording the membrane currents. The membrane voltage was maintained at −60 mV in all voltage clamp experiments unless otherwise specified. Current clamp recordings were obtained by switching to current clamp mode after a stable whole-cell configuration was formed in voltage clamp mode. Only cells with a stable resting membrane potential (more negative than −50 mV) were used in the study. Signals were sampled at 10 to 50 kHz and filtered at 2 to 10 kHz, and the data were stored in compatible PC computer for off-online analysis using the pCLAMP 10 acquisition software (Axon Instruments, CA, USA).\nDrugs purchased from Sigma and used in the experiments include hydrochloric acid, 2-furoyl-LIGRLO-NH2 (a PAR2-activating peptide (PAR2-AP)), trypsin, FSLLRY-NH2, APETx2, and capsazepine. Different pH values were configured with hydrochloric acid and external solution. All drugs were dissolved daily in the external solution just before use and held in a linear array of fused silica tubes (o.d./i.d. = 500 μm/200 μm) connected to a series of independent reservoirs. The application pipette tips were positioned ∼30 μm away from the recorded neurons. The application of each drug was driven by gravity and controlled by the corresponding valve, and rapid solution exchange could be achieved within about 100 ms by shifting the tubes horizontally with a PC-controlled micromanipulator. Cells were constantly bathed in normal external solution flowing from one tube connected to a larger reservoir between drug applications. In some experiments where GDP-β-S (Sigma), U-73122(Sigma), and GF109203X (RBI) were applied for intracellular dialysis through recording patch pipettes, they were dissolved in the internal solution before use. To ensure that the cell interior was perfused with the dialysis drug, there was at least a 30-min interval between the establishment of whole-cell access and the current measurement. […]"}, "[2]": {"system": "heteromeric ASIC1a+3 channels expressed with PAR2 in CHO cells", "test": "Whole-cell patch clamp, heteromeric ASIC1a+3 channels expressed with PAR2 in CHO cells", "assay_type": "cell-based, Chinese hamster", "conditions": "PAR2-AP 10^−5 M for 1 min; I pH 6.6; ASIC3:other subunit 1:3; n = 8", "method": "as §1\nWhole-cell patch clamp and voltage clamp recordings were carried out at room temperature (22–25 °C) using a MultiClamp-700B amplifier and Digidata-1440A A/D converter (Axon Instruments, CA, USA). […]\nDrugs purchased from Sigma and used in the experiments include hydrochloric acid, 2-furoyl-LIGRLO-NH2 (a PAR2-activating peptide (PAR2-AP)), trypsin, FSLLRY-NH2, APETx2, and capsazepine. […] The application pipette tips were positioned ∼30 μm away from the recorded neurons. […]"}}}
{"substance": "2-furoyl-LIGRLO-NH2 [PAR2-AP]", "values": [{"measurement": "maximum effect (potentiation of ASIC3 currents)", "setting": "[1]; 10^−4 M, pre-applied 1 min, I pH 6.6, n = 9", "value": "66.6 ± 7.5", "unit": "%"}, {"measurement": "increase of peak amplitude of I pH 6.6 after pretreatment with agonist alone", "setting": "[1]; 10^−5 M for 1 min, n = 10", "value": "61.6 ± 4.6", "unit": "%"}, {"measurement": "EC50", "setting": "[1]; I pH 6.6 for 5 s, PAR2-AP 10^−9–10^−4 M pre-applied 1 min, −60 mV, mean ± SEM of 8 to 10 cells, read-out: EC50 of PAR2-AP for potentiation of peak amplitude of proton-gated (ASIC3) currents", "value": 290, "unit": "nM"}, {"measurement": "threshold pH value of proton concentration–response curve in presence vs absence of PAR2-AP", "setting": "[1]; PAR2-AP 10^−5 M", "value": "no significant difference"}, {"measurement": "increase in the maximal current response to protons", "setting": "[1]; PAR2-AP 10^−5 M pre-applied, proton concentration–response curve, 8 to 10 cells", "value": "58.7 ± 3.8", "unit": "%"}, {"measurement": "Hill coefficient of proton concentration–response curve in the presence of PAR2-AP", "setting": "[1]; PAR2-AP 10^−5 M, 2.36 ± 0.13 in its absence, P > 0.1", "value": "2.28 ± 0.15"}, {"measurement": "Hill coefficient of steady-state desensitization with PAR2-AP", "setting": "[1]; PAR2-AP 10^−5 M, 3.58 ± 0.29 without", "value": "3.65 ± 0.35"}, {"measurement": "pH50 (pH for half-maximal current response) with PAR2-AP pretreatment", "setting": "[1]; PAR2-AP 10^−5 M, 6.70 ± 0.02 without, P > 0.1", "value": "6.71 ± 0.04"}, {"measurement": "pH50 for steady-state desensitization in the presence of PAR2-AP", "setting": "[1]; PAR2-AP 10^−5 M, conditioning pH 7.6 to 6.6 for 2 min, then pH 6.0, 7.16 ± 0.01 without, P < 0.05, 6 to 8 cells", "value": "7.05 ± 0.02"}, {"measurement": "Hill coefficient of the concentration–response curve for PAR2-AP", "setting": "[1]; potentiation of I pH 6.6, pre-applied 1 min", "value": 0.76}, {"measurement": "increase of peak current of heteromeric ASIC1a+3 channels", "setting": "[2]", "value": "51.6 ± 6.5", "unit": "%"}]}
